Read-outs that look alike come from different tables or passages of the source.
Tests used:
[1] = system: primary human hepatocytes; assay: Cytotoxicity / cell viability in primary human hepatocytes (CCK-8); assay type: cell-based; details: concentration up to 200 uM, 24 h
Procedure: Initial cell viability assays are performed on the YA7068 and new analogs on primary human hepatocytes (see letter from Prof. Hongbing Wang) using the commercially available CellTiter-Glo® 2.0 (Promega) as described by the manufacturer. […] These studies allow us to assess if the compounds are non-toxic for human liver cells.
Cytotoxicity studies of YA7068 to primary human hepatocytes were performed.
Human primary hepatocytes were maintained in DMEM medium with 10% fetal bovine serum (FBS) and 1% PS (penicillin/streptomycin). The cells were incubated in 37° C. incubator with 5% CO2. The number of viable cells was determined using the CCK-8 assay. Briefly, cells were seeded at a density of 5000 cells/well in 96-well plates, a nd were treated in triplicate with different concentrations of individual compounds (0, 0.1, 0.5, 1, 5, 10, 25, 50, 100, and 200 PM) for 24 h. Then, 10 μL of CCK-8 working solution was added to each well and incubated for appropriate times (0.5-4 h) before subjecting to a microplate reader for OD detection at 450 nm.

ALDH2 = target: T1, ALDH2 (Homo sapiens, UniProt P05091); assay: Fluorescence-based ALDH2 enzymatic inhibition assay (NADH fluorescence); assay type: biochemical; details: for IC50: ALDH2 50 nM, formaldehyde 300 μM, NAD+ 1.2 mM, pH 7.4, 25° C.; for fold more potent than hit CB-01 (ALDH2 IC50): relative to parent screening hit CB-01
T1 construct: purchased Abcam 87415
T1 sequence (P05091 18-517): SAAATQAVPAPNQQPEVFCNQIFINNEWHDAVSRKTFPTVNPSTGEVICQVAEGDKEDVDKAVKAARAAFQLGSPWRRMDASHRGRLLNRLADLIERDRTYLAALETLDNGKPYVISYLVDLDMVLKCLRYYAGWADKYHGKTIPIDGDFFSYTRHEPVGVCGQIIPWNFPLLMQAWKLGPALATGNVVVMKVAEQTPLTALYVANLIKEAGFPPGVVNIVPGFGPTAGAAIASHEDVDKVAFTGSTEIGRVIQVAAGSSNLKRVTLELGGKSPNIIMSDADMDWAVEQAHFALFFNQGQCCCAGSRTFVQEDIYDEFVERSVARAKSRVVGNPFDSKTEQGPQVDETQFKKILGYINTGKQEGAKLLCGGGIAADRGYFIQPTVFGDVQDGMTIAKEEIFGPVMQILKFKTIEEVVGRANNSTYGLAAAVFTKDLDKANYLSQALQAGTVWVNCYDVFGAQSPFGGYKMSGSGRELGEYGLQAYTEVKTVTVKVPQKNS
Procedure: Fluorescence-based ALDH2 assay was used to test the potencies of new compounds.
IC50 values of synthesized compounds is tested by an ALDH2 enzymatic assay obtained by modifying a published protocol, for example by Yang et al. This assay measures an inhibitor-caused fluorescence decrease of the NADH generated from the ALDH2 catalytic reaction. Inhibitor binding causes a decrease in the production of NADH that affects the ability of the enzyme to turnover its substrate aldehyde and decreased the production of carboxylic acid. The assay components include: ALDH2 (50 nM) (Abcam #87415), substrate formaldehyde (300 μM), NAD^+ (1.2 mM), and testing compound in phosphate buffer (50 mM, pH 7.4) with 0.01% Tween 20 at 25° C. The assay is performed in black 384-well plates (40 L total volume; Costar). […] The negative control contains the enzyme, substrate solution in phosphate buffer without the addition of the substrate formaldehyde. Measurements are performed 10 min after adding the testing compound by excitation of NAD^+ at 340 nm, which leads to fluorescence emission at 450 nm. The IC50 values of testing compounds is determined from experiments performed in a concentration-dependent manner of testing compounds by fitting the data to a sigmoidal dose-response equation in GraphPad Prism. All experiments are performed in triplicate.
An HTS ALDH2 enzymatic assay is established and can be used to measure the inhibitory potency of compounds. […] The assay was used for temperature, pH value, and concentration of ALDH2 in the 384-well format; several independent test runs were performed to assess assay parameters.
To determine the performance of the established ALDH2 activity assay under HTS conditions, a pilot screen of 980 compounds was performed. Compounds were tested in triplicate at concentrations ranging from 10 nM to 50 μM (0.1% DMSO). Raw assay data were analyzed using DataWarrior software. The IC50 value of each compound was calculated. “High Control” represents wells from the same plate containing ALDH2 (50 nM), formaldehyde (300 μM), and NAD^+ (1.2 mM) in phosphate buffer (50 mM, pH 7.4) with 0.01% Tween 20 at 25° C. and DMSO (0.1%) while “Low controls” correspond to the wells from the same plate containing ALDH2 (50 nM) treated with and NAD^+ (1.2 mM) in phosphate buffer (50 mM, pH 7.4) with 0.01% Tween 20 at 25° C. and DMSO (0.1%). […] Two values were subsequently calculated: 1) the average IC50 values of all the compounds tested in the screen, and 2) three times the standard deviation. The sum of these two values was used as the cutoff parameter.

OATP1B1 = target: T2, OATP1B1 (Homo sapiens, UniProt Q9Y6L6); assay: OATP1B1-mediated uptake, OATP1B1-transfected vs wild-type HEK293 cells; assay type: in vitro ADME
T2 construct: expressed in transfected cells; host or cells: HEK293
T2 sequence (Q9Y6L6 1-691): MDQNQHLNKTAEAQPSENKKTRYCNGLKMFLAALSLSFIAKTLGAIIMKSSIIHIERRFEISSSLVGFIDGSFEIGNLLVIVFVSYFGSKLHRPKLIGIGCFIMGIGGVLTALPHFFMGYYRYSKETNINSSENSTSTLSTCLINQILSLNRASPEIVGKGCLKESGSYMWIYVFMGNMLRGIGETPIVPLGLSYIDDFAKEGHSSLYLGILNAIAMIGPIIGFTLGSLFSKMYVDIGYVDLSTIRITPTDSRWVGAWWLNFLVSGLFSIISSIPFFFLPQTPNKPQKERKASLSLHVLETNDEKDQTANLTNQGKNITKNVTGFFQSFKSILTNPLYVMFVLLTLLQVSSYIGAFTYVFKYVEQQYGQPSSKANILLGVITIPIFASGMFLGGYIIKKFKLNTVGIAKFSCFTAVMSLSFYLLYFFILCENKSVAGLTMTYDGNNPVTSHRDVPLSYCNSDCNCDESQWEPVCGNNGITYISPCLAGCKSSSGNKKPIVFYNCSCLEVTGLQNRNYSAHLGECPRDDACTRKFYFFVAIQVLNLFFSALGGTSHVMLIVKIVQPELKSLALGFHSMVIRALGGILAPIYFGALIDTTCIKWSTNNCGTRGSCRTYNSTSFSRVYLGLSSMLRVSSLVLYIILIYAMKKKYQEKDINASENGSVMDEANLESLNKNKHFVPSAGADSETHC
Procedure: The uptake of inhibitor YA7068 by the liver-specific transporter OATP1B1 has been evaluated using a protocol similar to the one in a recent study on OCT transporters by Obianom et al. After incubating OATP1B1-transfected HEK293 cells with the compound, the intracellular concentrations of YA7068 was >2.5-fold higher than that after incubating the wild-type HEK293 cells with the compound (FIG. 3D). In sum, compound YA7068 is developed as a novel liver-targeting potent inhibitor of ALDH2.
The OATP1-mediated uptake of synthesized compounds is assessed by an LC-MS-based method employing the OATP1B1- or OATP1B3-expressing HEK293 cells. Briefly, cells are washed twice with uptake buffer to remove floating cells. Compounds diluted in the uptake buffer are replaced in the wells and incubated for 10 min. For screening of compounds at a single concentration and one-time point, the cells are incubated with 100 μM of testing compounds. In each experiment, pitavastatin is used as a positive control. The incubation is stopped by removing the solution and adding […] of ice-cold uptake buffer. The cells are washed twice with the buffer. After washing, 200 μL of lysing solution (1:1 MeOH/H2O) containing internal standard is added. […] Aliquots of the supernatant are transferred to new tubes and drug concentration is quantified by LC-MS/MS. […]

Row | IC50 (ALDH2; read-out: IC50, inhibition of the enzymatic activity of ALDH2) | fold more potent than hit CB-01 (ALDH2 IC50) (ALDH2) | intracellular concentration, OATP1B1-transfected HEK293 cells vs wild-type HEK293 cells (OATP1B1; after incubating cells with the compound) | substrate for hepatocyte-specific OATP1B1 (OATP1B1; result in words) | IC50 (ALDH2; read-out: IC50, ALDH2 enzymatic assay) | SMILES | cytotoxicity for primary human hepatocytes [1]
1 | 62 nM | > 170 fold | > 2.5 fold | functions as a substrate | – | CS(=O)(=O)Nc1ccc(-c2cc3ccc(OCc4cccc(C(=O)O)c4)cc3oc2=O)cc1 [YA7068, 3-(((3-(4-(Methylsulfonamido)phenyl)-2-oxo-2H-chromen-7-yl)oxy)methyl)benzoic acid] | did not exhibit any cytotoxicity
2 | – | 5.8 fold | – | – | 1900 nM | CS(=O)(=O)Nc1ccc(-c2cn3cc(C(=O)O)sc3n2)cc1 [YA7241, 6-(4-(Methylsulfonamido)phenyl)imidazo[2,1-b]thiazole-2-carboxylic acid] | –

Reference: patent publication US20250313532A1, “ALDH2 INHIBITORS AND METHODS OF USE THEREOF” (UNIVERSITY OF MARYLAND, BALTIMORE, priority 2022, published 2025)
